Assay results taken from paper PMC12057046, “Elucidation of short linear motif-based interactions of the MIT and rhodanese domains of the ubiquitin-specific protease 8” (Biology Direct, 2025).

The sequences below were run against T1, USP8 Rhod domain (Homo sapiens, UniProt P40818) (assay: Peptide-phage display-based deep mutational scanning (DMS), USP8 Rhod domain). Conditions: ProP-PD pairs, bait USP8_Rhodanese__P40818_174_317; wild-type/mutant pair, wild type KIAA1614 569-584 GMERVLGGLSSPLRLL (wt_00013).
T1 construct: USP8 Rhod (174–317) (UniProt: P40818); GST (cleaved yes); made in house; host or cells: Escherichia coli BL21-Gold (DE3)
T1 sequence (P40818 174-317): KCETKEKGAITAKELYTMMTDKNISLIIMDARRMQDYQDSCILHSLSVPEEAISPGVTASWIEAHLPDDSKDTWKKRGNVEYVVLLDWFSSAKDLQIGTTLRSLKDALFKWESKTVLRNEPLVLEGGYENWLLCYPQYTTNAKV
Type: binding
Protocol: Four rounds of phage selections were carried out using the second generation human disorderome library or the constructed deep mutational scanning library. At least three individual replicates were used for each bait protein. 10 µg of GST-tagged proteins or GST control (diluted in PBS from the stock of proteins kept in the purification elution buffer) were immobilized in 100 µL PBS on a 96-well MaxiSorp (Nunc) plate overnight at 4 °C. The plates were incubated with blocking buffer (with 0.5% BSA in PBS) for 1 h at 4 °C followed by washing with 0.05% Tween 20 in PBS four times. The naïve phage library (10^11 CFU) was diluted in 1/5th volume PEG/NaCl (20% PEG-8000, 0.4 M NaCl) and 1X PBS, incubated on ice for 10 min and centrifuged at 10,000 [drawing 3] g for 10 min. The pellet was resuspended in the volume of PBS (100 µL/ well). The GST-coated control plate was incubated with 100 µL library per well in PBS for 1 h at 4 °C to remove non-specific binders. The supernatant was transferred to the target wells and incubated for 2 h at 4 °C. The wells were washed five times with 0.05% Tween 20 in PBS and the bound phages were eluted with 100 µL per well log-phase E. coli OmniMAX by incubating at 37° C while shaking. After 30 min, M13KO7 helper phages were added and incubated for an additional 45 min. The bacterial cultures were transferred to 1 mL 2YT supplemented with 100 µg/mL carbenicillin, 30 µg/mL kanamycin and 0.3 mM IPTG and grew overnight at 37 °C while shaking. The following day the cultures were centrifuged for 10 min at 2,000 [drawing 4] g, 4 °C. 1/10th volume of 10 [drawing 5] PBS was added to adjust the pH and heated at 65 °C for 10 min. The phage pools from each round were used as in-phages for the next round of selections.
The samples were prepared for NGS as previously described. […] The PCR products were normalized with 25 µL Mag-bind Total Pure NGS beads (Omega Biotek) and 10 µL of each eluted sample (Qiagen Elution Buffer) was pooled and cleaned-up with a PCR purification kit (Qiagen). The PCR product was confirmed by 2% agarose electrophoresis and the band was extracted with QIAquick Gel extraction Kit (Qiagen) and eluted with 30 µL TE buffer. The dsDNA was quantified using QuantiT PicoGreen dsDNA Assay Kit (Thermo Fisher) and sent for NGS (Illumina MiSeq v3, 1 × 150 bp read setup, 20% PhiX, NGI SciLifeLab facility, Sweden). The NGS data were demultiplexed, adapter regions were trimmed and sequences with an average quality of at least 20 were translated to peptide sequences. The NGS data were analysed using custom Python scripts. The total read NGS counts for each selection experiment of each peptide sequence were compiled and annotated in PepTools (https://slim.icr.ac.uk/tools/peptools/). Since ProP-PD is in essence a competition assay, the possibility of the input phage library influencing the selection outcome was explored. […] Pearson correlation coefficient and p-value were calculated using Python’s SciPy library.

In order of falling hit_pair_ratio:
1. FMERVLGGLSSPLRLL  321.97
2. EMERVLGGLSSPLRLL  2.87
3. DMERVLGGLSSPLRLL  1.56
4. GFERVLGGLSSPLRLL  1.56
5. GKERVLGGLSSPLRLL  -1.45
6. GAERVLGGLSSPLRLL  -2.65
7. GIERVLGGLSSPLRLL  -4.51
8. GDERVLGGLSSPLRLL  -4.95
9. GHERVLGGLSSPLRLL  -7.73
10. GGERVLGGLSSPLRLL  -22.40
11. GEERVLGGLSSPLRLL  -32.83

Same assay, conditions: bait USP8_Rhodanese__P40818_174_317; wild-type/mutant pair ratio of averaged fractions; negative values where mutant fraction is higher

In order of falling hit_pair_ratio:
1. GLALWEAKMKFLAERA  1107.01
2. GLALWEAKMKQIAERA  1107.01
3. GLALWEAKMKQKAERA  1107.01
4. GLALWEAKMKQLAEAA  1107.01
5. GLALWEAKMKQLAERF  1107.01
6. GLALWEAKMKQLAIRA  1107.01
7. GLALWEAKMKQLAWRA  1107.01
8. GLALWEAKMKQMAERA  1107.01
9. GLALWEAKMKQSAERA  1107.01
10. GLALWEAKMKILAERA  553.50
11. GLALWEAKMKQFAERA  553.50
12. GLALWEAKMKQLAERR  553.50
13. GLALWEAKMKQLATRA  553.50
14. GLALWEAKMKKLAERA  417.62
15. GLALWEAKMKQAAERA  417.62
16. GLALWEAKMKQRAERA  417.62
17. GLALWEAKMKQLIERA  369.00
18. GLALWEAKMKQLAERY  303.23
19. GLALWEAKMKQLAEFA  208.81
20. GLALWEAKMKQLAERH  208.81
21. GLALWEAKMKQLAYRA  208.81
22. GLALWEAKMKQLAEVA  195.90
23. GLALWEAKMKQLYERA  195.90
24. GLALWEAKMKQLDERA  184.50
25. GLALWEAKMKQLKERA  184.50
26. GLALWEAKMKQLADRA  175.67
27. GLALWEAKMKALAERA  133.35
28. GLALWEAKMKQLTERA  133.35
29. GLALWEAKMKQLAQRA  119.01
30. GLALWEAKMKQLAARA  114.71
31. GLALWEAKMKQLPERA  87.51
32. GLALWEAKMKQLMERA  81.38
33. GLALWEAKMKQLAERG  73.80
34. GLALWEAKMKQLANRA  73.80
35. GLALWEAKMKQLAERL  72.57
36. GLALWEAKMKQLAEDA  66.48
37. GLALWEAKMKQLASRA  65.49
38. GLALWEAKMFQLAERA  59.51
39. GLALWEAKMKQLAENA  55.62
40. GLALWEAKMKQLAEWA  38.36
41. GLALWEAKMKQLAERM  33.55
42. GLALWEAKMKQLLERA  31.22
43. GLALWEAKMKRLAERA  29.55
44. GLALWEAKMKQLAEHA  25.68
45. GLALWEAKMDQLAERA  25.01
46. GLALWEAKMKQLAFRA  24.07
47. GLALWEAKMKMLAERA  23.91
48. GLALWEAKMKQLAVRA  20.13
49. GLALWEAKMIQLAERA  19.96
50. GLALWEAKMKHLAERA  17.96
51. GLALWEAKMKQLNERA  17.57
52. GLALWEAKMKQLAEEA  15.47
53. GLALWEAKMKQLAGRA  14.06
54. GLALWEAKMKQLALRA  13.05
55. GLALWEAKMKQLAEKA  12.41
56. GLALWEAKMKQLAEMA  12.23
57. GLALWEAKMKQLAELA  11.23
58. GLALWEAKMKQLAMRA  7.80
59. GLALWEAKMKQLAEGA  5.87
60. GLALWEAKMKGLAERA  5.73
61. GLALWEAKMKQLAERE  4.16
62. GLALWEAKMKQLAERQ  3.47
63. GLALWEAKMKQLQERA  2.19
64. GLALWEAKMKQLHERA  1.77
65. GLALWEAKMKNLAERA  1.69
66. GLALWEAKMKQLAERS  1.62
67. GLALWEAKMKQLAERT  1.21
68. GLALWEAKMKQLAERN  -1.05
69. GLALWEAKMKQLAERI  -1.09
70. GLALWEAKMGQLAERA  -1.24
71. GLALWEAKMKDLAERA  -1.51
72. GLALWEAKMKQLAERV  -1.88
73. GLALWEAKMKQLAETA  -1.95
74. GLALWEAKMKLLAERA  -2.26
75. GLALWEAKMHQLAERA  -2.45
76. GLALWEAKMKQLGERA  -3.00
77. GLALWEAKMAQLAERA  -3.11
78. GLALWEAKMKQLAESA  -3.11
79. GLALWEAKMKQLVERA  -3.40
80. GLALWEAKMKQLAERP  -3.73
81. GLALWEAKMEQLAERA  -4.35
82. GLALWEAKMKQLAEQA  -4.51
83. GLALWEAKMKQLAERD  -5.62
84. AMERVLGGLSSPLRLL  -9.71
85. GLALWEAKMKQLAEYA  -10.12
86. GLALWEAKMKQLAEPA  -18.07
87. GLALWEAKMKQLEERA  -19.29

Same assay, conditions: wild type/mutant pair; bait USP8_Rhodanese__P40818_174_317; vs hit_library_peptide_wt GLALWEAKMKQLAERA; negative where mutant fraction exceeds wild type; ProP-PD pairs (sheet S7.B)

In order of rising hit_pair_ratio:
1. GLAIWEAKMKQLAERA  -44.11
2. GIALWEAKMKQLAERA  1.27
3. GLALWEAKAKQLAERA  7.49
4. GLALMEAKMKQLAERA  16.52
5. GLAFWEAKMKQLAERA  21.29
6. GLALWDAKMKQLAERA  51.13
7. GLAAWEAKMKQLAERA  52.20
8. GLAEWEAKMKQLAERA  52.71
9. GLALSEAKMKQLAERA  61.66
10. GLALGEAKMKQLAERA  65.12
11. ELALWEAKMKQLAERA  75.56
12. GLALWEAKIKQLAERA  101.08
13. GLALPEAKMKQLAERA  110.70
14. GFALWEAKMKQLAERA  114.71
15. GLALWEAKHKQLAERA  127.97
16. GHALWEAKMKQLAERA  175.67
17. GLAGWEAKMKQLAERA  208.81
18. GLALREAKMKQLAERA  303.23
19. GKALWEAKMKQLAERA  369.00
20. GLAHWEAKMKQLAERA  369.00
21. GLALWEAKFKQLAERA  369.00
22. GLALLEAKMKQLAERA  417.62
23. GLALKEAKMKQLAERA  553.50
24. GLALWAAKMKQLAERA  553.50
25. GAALWEAKMKQLAERA  1107.01
26. GLADWEAKMKQLAERA  1107.01
27. GLAKWEAKMKQLAERA  1107.01
28. GLALFEAKMKQLAERA  1107.01
29. GLALHEAKMKQLAERA  1107.01
30. GLALTEAKMKQLAERA  1107.01
31. GLALVEAKMKQLAERA  1107.01
32. GLALWEAEMKQLAERA  1107.01
33. GLALWEAKLKQLAERA  1107.01
